Test results from PMC4157337 (Peptides, 2013).
pKi: −log10 of the molar value.

Key:
neurolysin = details: cited from earlier work
[1] = tested on: Ang-(1-7) peptidase (CSF); test: Inhibitor profile: [125I]-Ang-; assay type: biochemical, sheep; details: text to Figure 1D-F; pooled CSF
[2] = target: TOP (thimet oligopeptidase); details: cited from earlier work
[3] = tested on: Ang-(1-7) peptidase (CSF); details: sheep CSF, earlier study; cited from earlier work
neprilysin = details: no reference given; quoted as known selective inhibitor; cited from earlier work
[4] = cited from earlier work
[5] = tested on: Ang-(1-7) peptidase (CSF); test: pH profile of [125I]-Ang-; assay type: biochemical, sheep; details: pH 5 to 8.5; N = 3
[6] = tested on: Ang-(1-7) peptidase (CSF); test: Peptidase kinetics; assay type: biochemical; details: sheep CSF, control and BMX; product [125I]-Ang-(1-4)
[7] = tested on: Ang-(1-7) peptidase (CSF); test: Competition of peptides for conversion of [125I]-Ang-; details: pooled CSF, inhibitor cocktail, 120 min, 37°C; Figure 4

## 1-carboxy-3-phenyl-propyl (Ala-Ala-Phe-4-Abz-OH [CFP]
neurolysin
  pKi: 5.40
[1]
  attenuation of metabolism of Ang-(1-7) to Ang-(1-4), in words: failed to attenuate
[2]
  pKi: 6.74

## O=C(O)c1cc[c]([Hg][Cl])cc1 [PCMB, p-chloromercuribenzoic acid]
[3]
  conversion of Ang-(1-7) to Ang-(1-4) in CSF, in words: abolished

## O=C(O)C(O)CNC(=O)[C@H](Cc1ccccc1)NC(CCc1ccccc1)C(=O)O (stereo partly drawn) [SCH39370]
neprilysin
  pKi: 7.96
[1]
  attenuation of metabolism of Ang-(1-7) to Ang-(1-4), in words: failed to attenuate

## C[C@H]1C[C@H]2[C@@H]3CCC4=CC(=O)C=C[C@]4(C)[C@@]3(F)[C@@H](O)C[C@]2(C)[C@@]1(O)C(=O)CO [betamethasone]
[4]; BMX sheep
  ACE2 activity in renal cortex, isolated tubules and urine, in words: lower
[4]; adult BMX offspring
  ACE2 activity in the circulation, in words: decreased
  soluble ACE activity in the circulation, in words: increased
[4]; antenatal exposure, by 6 months of age
  MAP, in words: elevated MAP
[4]; antenatal exposure, by 6 weeks
  baroreflex sensitivity (BRS), in words: decreased BRS

## Pro-Ile
neurolysin
  pKi: 4.05
neurolysin; cytosolic and mitochondrial forms
  sensitivity of neurolysin forms to inhibition, in words: sensitive to Pro-Ile inhibition
[1]
  attenuation of metabolism of Ang-(1-7) to Ang-(1-4), in words: failed to attenuate

## [^125I]-Ang-(1-7): iodinated Ang-(1-7), substrate; chloramine T method
[5]
  conversion in BMX versus control CSF, in words: higher activity than the control
[6]
  site of hydrolysis: Tyr^4-Ile^5 bond

## neurotensin
[7]
  extent of inhibition of enzyme activity over the concentration range: 15%
  extent of inhibition of enzyme activity, in words: poor competitor
